Reference: paper PMC4023990, “Characterization of the RnfB and RnfG Subunits of the Rnf Complex from the Archaeon Methanosarcina acetivorans” (PLoS ONE, 2014)

Key:
RnfG [1] = target: T1, RnfG (Methanosarcina acetivorans, UniProt Q8TSY2, T166G); assay: protein colour and UV fluorescence of the purified variant; assay type: binding; details: removal of the covalent FMN attachment residue
T1 construct: full-length membrane subunit with C-terminal His6 tag (vector leader removed), made in E. coli LMG194, purified from membranes in dodecyl maltoside; isolated subunit of the Rnf complex

RnfG [2] = target: T2, RnfG (Methanosarcina acetivorans, UniProt Q8TSY2); assay: UV-visible absorbance of purified protein; UV fluorescence in SDS-PAGE gel; boiling and TCA treatment; assay type: binding; details: covalent (flavin assigned as FMN, attached at Thr166); 25 µM protein, 25 mM Tris-HCl pH 8
T2 construct: full-length membrane subunit with C-terminal His6 tag (vector leader removed), made in E. coli LMG194, purified from membranes in dodecyl maltoside; isolated subunit of the Rnf complex
T2 sequence (Q8TSY2 whole entry): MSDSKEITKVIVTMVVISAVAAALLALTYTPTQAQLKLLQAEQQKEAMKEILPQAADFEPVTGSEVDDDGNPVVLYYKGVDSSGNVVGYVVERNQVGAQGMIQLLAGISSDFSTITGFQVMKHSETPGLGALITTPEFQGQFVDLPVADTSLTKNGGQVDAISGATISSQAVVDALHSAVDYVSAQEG

T1 sequence (Q8TSY2 whole entry T166G): as the sequence (Q8TSY2 whole entry) above, with T166G counted along it

molar ratio of flavin (RnfG [2]): 0.84 mol/mol
Compound: Cc1cc2nc3c(=O)[nH]c(=O)nc-3n(C[C@H](O)[C@H](O)[C@H](O)COP(=O)(O)O)c2cc1C [FMN]
colour and fluorescence (RnfG [1]): The purified variant was colorless and failed to fluoresce under UV illumination
